{
  "source": "patent US20260365682A1",
  "about": "“MODULATORS OF TNF-ALPHA ACTIVITY” (Forward Therapeutics, Inc., priority 2022, published 2026)",
  "target": "T1, TNF-α (Homo sapiens, UniProt P01375)",
  "T1 construct": "purchased R&D 210-TA-020/CF",
  "T1 sequence (P01375 77-233 limits assumed)": "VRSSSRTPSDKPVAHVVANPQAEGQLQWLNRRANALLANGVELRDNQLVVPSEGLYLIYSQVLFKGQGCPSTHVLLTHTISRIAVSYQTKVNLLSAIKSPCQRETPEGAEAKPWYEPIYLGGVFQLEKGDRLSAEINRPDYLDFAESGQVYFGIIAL",
  "assay": "TNF-α Induced HEK Blue Cellular Assay (secreted alkaline phosphatase expression, QUANTI-Blue)",
  "assay_type": "cell-based",
  "conditions": "HEK Blue TNFα reporter cells, TNF-α 100 μg/ml, 24 hrs at 37° C., inhibition of secreted alkaline phosphatase",
  "summary_of_the_method": "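Compound was serially diluted from […] to 0.5 nM final, then incubated with 10,000 HEK Blue TNFα reporter cells per well and […] TNF-α for 24 h at 37° C. SEAP output was read by QUANTI-Blue absorbance at 620 nm. Inhibition was background-corrected against DMSO controls with and without stimulation, and IC50 was fitted with a 4-parameter logistic equation.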",
  "note": "Read-outs that look alike come from different tables or passages of the source.",
  "data": [
    {"smiles": "[2H]C([2H])([2H])N1C(=O)c2cccc(OC(F)F)c2[C@H]2C[C@@H]1c1nc3ccc(C#CCN4CCC(F)(F)C4)cc3n12", "note": "[Example 230, (7R,14R)-1-(difluoromethoxy)-11-(3-(3,3-difluoropyrrolidin-1-yl)prop-1-yn-1-yl)-6-(methyl-d3)-6,7-dihydro-7,14-methanobenzo[f]benzo[4,5]imidazo[1,2-a][1,4]diazocin-5(14H)-one]", "values": [
      {"measurement": "IC50", "setting": "read-out: IC50 value", "result": "< 100", "unit": "nM"}
    ]},
    {"smiles": "[2H]C([2H])([2H])N1C(=O)c2cccc(OC(F)F)c2[C@H]2C[C@@H]1c1nc3ccc(C#CCN4CC(F)(F)C4)cc3n12", "note": "[Example 231, (7R,14R)-11-(3-(3,3-difluoroazetidin-1-yl)prop-1-yn-1-yl)-1-(difluoromethoxy)-6-(methyl-d3)-6,7-dihydro-7,14-methanobenzo[f]benzo[4,5]imidazo[1,2-a][1,4]diazocin-5(14H)-one]", "values": [
      {"measurement": "IC50", "setting": "read-out: IC50 value", "result": "< 100", "unit": "nM"}
    ]},
    {"smiles": "[2H]C([2H])([2H])N1C(=O)c2cccc(OC(F)F)c2[C@H]2C[C@@H]1c1nc3ccc(C#CCN4CC(F)C4)cc3n12", "note": "[Example 232, (7R,14R)-1-(difluoromethoxy)-11-(3-(3-fluoroazetidin-1-yl)prop-1-yn-1-yl)-6-(methyl-d3)-6,7-dihydro-7,14-methanobenzo[f]benzo[4,5]imidazo[1,2-a][1,4]diazocin-5(14H)-one]", "values": [
      {"measurement": "IC50", "setting": "read-out: IC50 value", "result": "100 to 1000", "unit": "nM"}
    ]},
    {"smiles": "[2H]C([2H])([2H])N1C(=O)c2cccc(OC(F)F)c2[C@H]2C[C@@H]1c1nc3ccc(C#CCCN4CC(F)(F)C4)cc3n12", "note": "[Example 233, (7R,14R)-11-(4-(3,3-difluoroazetidin-1-yl)but-1-yn-1-yl)-1-(difluoromethoxy)-6-(methyl-d3)-6,7-dihydro-7,14-methanobenzo[f]benzo[4,5]imidazo[1,2-a][1,4]diazocin-5(14H)-one]", "values": [
      {"measurement": "IC50", "setting": "read-out: IC50 value", "result": "< 100", "unit": "nM"}
    ]},
    {"smiles": "[2H]C([2H])([2H])N1C(=O)c2cccc(OC(F)F)c2[C@H]2C[C@@H]1c1nc3ccc(C#CC4CCN(C5CC5)C4)cc3n12", "note": "(stereo partly drawn) [Example 234, (7R,14R)-11-((1-cyclopropylpyrrolidin-3-yl)ethynyl)-1-(difluoromethoxy)-6-(methyl-d3)-6,7-dihydro-7,14-methanobenzo[f]benzo[4,5]imidazo[1,2-a][1,4]diazocin-5(14H)-one]", "values": [
      {"measurement": "IC50", "setting": "read-out: IC50 value", "result": "< 100", "unit": "nM"}
    ]},
    {"smiles": "[2H]C([2H])([2H])N1C(=O)c2cccc(OC(F)F)c2[C@H]2C[C@@H]1c1nc3ccc(C#CCN4CC[C@H](F)C4)cc3n12", "note": "[Example 235, (7R,14R)-1-(difluoromethoxy)-11-(3-((S)-3-fluoropyrrolidin-1-yl)prop-1-yn-1-yl)-6-(methyl-d3)-6,7-dihydro-7,14-methanobenzo[f]benzo[4,5]imidazo[1,2-a][1,4]diazocin-5(14H)-one]", "values": [
      {"measurement": "IC50", "setting": "read-out: IC50 value", "result": "< 100", "unit": "nM"}
    ]},
    {"smiles": "[2H]C([2H])([2H])N1C(=O)c2cccc(OC(F)F)c2[C@H]2C[C@@H]1c1nc3ccc(C#CCN4CC[C@@H](F)C4)cc3n12", "note": "[Example 236, (7R,14R)-1-(difluoromethoxy)-11-(3-((R)-3-fluoropyrrolidin-1-yl)prop-1-yn-1-yl)-6-(methyl-d3)-6,7-dihydro-7,14-methanobenzo[f]benzo[4,5]imidazo[1,2-a][1,4]diazocin-5(14H)-one]", "values": [
      {"measurement": "IC50", "setting": "read-out: IC50 value", "result": "< 100", "unit": "nM"}
    ]},
    {"smiles": "[2H]C([2H])([2H])N1C(=O)c2cccc(OC(F)F)c2[C@H]2C[C@@H]1c1nc3ccc(C#CC4CCN(C5COC5)C4)cc3n12", "note": "(stereo partly drawn) [Example 237, (7R,14R)-1-(difluoromethoxy)-6-(methyl-d3)-11-((1-(oxetan-3-yl)pyrrolidin-3-yl)ethynyl)-6,7-dihydro-7,14-methanobenzo[f]benzo[4,5]imidazo[1,2-a][1,4]diazocin-5(14H)-one]", "values": [
      {"measurement": "IC50", "setting": "read-out: IC50 value", "result": "< 100", "unit": "nM"}
    ]},
    {"smiles": "[2H]C([2H])([2H])N1C(=O)c2cccc(OC(F)F)c2[C@H]2C[C@@H]1c1nc3ccc(C#CC4CN(C(C)C(F)F)C4)cc3n12", "note": "(stereo partly drawn) [Example 238, (7R,14R)-1-(difluoromethoxy)-11-((1-(1,1-difluoropropan-2-yl)azetidin-3-yl)ethynyl)-6-(methyl-d3)-6,7-dihydro-7,14-methanobenzo[f]benzo[4,5]imidazo[1,2-a][1,4]diazocin-5(14H)-one]", "values": [
      {"measurement": "IC50", "setting": "read-out: IC50 value", "result": "< 100", "unit": "nM"}
    ]},
    {"smiles": "[2H]C([2H])([2H])N1C(=O)c2cccc(OC(F)F)c2[C@H]2C[C@@H]1c1nc3ccc(C#CCNC4CC4)cc3n12", "note": "[Example 241, (7R,14R)-11-(3-(cyclopropylamino)prop-1-yn-1-yl)-1-(difluoromethoxy)-6-(methyl-d3)-6,7-dihydro-7,14-methanobenzo[f]benzo[4,5]imidazo[1,2-a][1,4]diazocin-5(14H)-one]", "values": [
      {"measurement": "IC50", "setting": "IC50 value", "result": "< 100", "unit": "nM"}
    ]},
    {"smiles": "[2H]C([2H])([2H])N1C(=O)c2cccc(OC(F)F)c2[C@H]2C[C@@H]1c1nc3ccc(C#CCNC4COC4)cc3n12", "note": "[Example 242, (7R,14R)-1-(difluoromethoxy)-6-(methyl-d3)-11-(3-(oxetan-3-ylamino)prop-1-yn-1-yl)-6,7-dihydro-7,14-methanobenzo[f]benzo[4,5]imidazo[1,2-a][1,4]diazocin-5(14H)-one]", "values": [
      {"measurement": "IC50", "setting": "IC50 value", "result": "< 100", "unit": "nM"}
    ]},
    {"smiles": "[2H]C([2H])([2H])N1C(=O)c2cccc(OC(F)F)c2[C@H]2C[C@@H]1c1nc3ccc(C#CC(F)F)cc3n12", "note": "[Example 247, (7R,14R)-1-(difluoromethoxy)-11-(3,3-difluoroprop-1-yn-1-yl)-6-(methyl-d3)-6,7-dihydro-7,14-methanobenzo[f]benzo[4,5]imidazo[1,2-a][1,4]diazocin-5(14H)-one]", "values": [
      {"measurement": "IC50", "setting": "read-out: IC50 value", "result": "< 100", "unit": "nM"}
    ]},
    {"smiles": "[2H]C([2H])([2H])N1C(=O)c2cccc(OC(F)F)c2[C@H]2C[C@@H]1c1nc3ccc(C#CC(C)CN4CC(F)C4)cc3n12", "note": "(stereo partly drawn) [Example 248, (7R,14R)-1-(difluoromethoxy)-11-(4-(3-fluoroazetidin-1-yl)-3-methylbut-1-yn-1-yl)-6-(methyl-d3)-6,7-dihydro-7,14-methanobenzo[f]benzo[4,5]imidazo[1,2-a][1,4]diazocin-5(14H)-one]", "values": [
      {"measurement": "IC50", "setting": "read-out: IC50 value", "result": "100 to 1000", "unit": "nM"}
    ]},
    {"smiles": "[2H]C([2H])([2H])N1C(=O)c2cccc(OC(F)F)c2[C@H]2C[C@@H]1c1nc3ccc(C#Cc4cnc(N)nc4)cc3n12", "note": "[Example 249, (7R,14R)-11-((2-aminopyrimidin-5-yl)ethynyl)-1-(difluoromethoxy)-6-(methyl-d3)-6,7-dihydro-7,14-methanobenzo[f]benzo[4,5]imidazo[1,2-a][1,4]diazocin-5(14H)-one]", "values": [
      {"measurement": "IC50", "setting": "read-out: IC50 value", "result": "< 100", "unit": "nM"}
    ]},
    {"smiles": "[2H]C([2H])([2H])N1C(=O)c2cccc(OC(F)F)c2[C@H]2C[C@@H]1c1nc3ccc(C#CC4(O)CN(C5COC5)C4)cc3n12", "note": "[Example 250, (7R,14R)-1-(difluoromethoxy)-11-((3-hydroxy-1-(oxetan-3-yl)azetidin-3-yl)ethynyl)-6-(methyl-d3)-6,7-dihydro-7,14-methanobenzo[f]benzo[4,5]imidazo[1,2-a][1,4]diazocin-5(14H)-one]", "values": [
      {"measurement": "IC50", "setting": "read-out: IC50 value", "result": "< 100", "unit": "nM"}
    ]},
    {"smiles": "[2H]C([2H])([2H])N1C(=O)c2cccc(OC(F)F)c2[C@H]2C[C@@H]1c1nc3ccc(C#CC4(O)CNC4)cc3n12", "note": "[Example 251, (7R,14R)-1-(difluoromethoxy)-11-((3-hydroxyazetidin-3-yl)ethynyl)-6-(methyl-d3)-6,7-dihydro-7,14-methanobenzo[f]benzo[4,5]imidazo[1,2-a][1,4]diazocin-5(14H)-one]", "values": [
      {"measurement": "IC50", "setting": "read-out: IC50 value", "result": "10000 to 30000", "unit": "nM"}
    ]},
    {"smiles": "[2H]C([2H])([2H])N1C(=O)c2cccc(OC(F)F)c2[C@H]2C[C@@H]1c1nc3ccc(C#CC4(F)CN(C5COC5)C4)cc3n12", "note": "[Example 252, (7R,14R)-1-(difluoromethoxy)-11-((3-fluoro-1-(oxetan-3-yl)azetidin-3-yl)ethynyl)-6-(methyl-d3)-6,7-dihydro-7,14-methanobenzo[f]benzo[4,5]imidazo[1,2-a][1,4]diazocin-5(14H)-one]", "values": [
      {"measurement": "IC50", "setting": "read-out: IC50 value", "result": "< 100", "unit": "nM"}
    ]},
    {"smiles": "[2H]C([2H])([2H])N1C(=O)c2cccc(OC(F)F)c2[C@H]2C[C@@H]1c1nc3ccc(C#CC4(F)CNC4)cc3n12", "note": "[Example 253, (7R,14R)-1-(difluoromethoxy)-11-((3-fluoroazetidin-3-yl)ethynyl)-6-(methyl-d3)-6,7-dihydro-7,14-methanobenzo[f]benzo[4,5]imidazo[1,2-a][1,4]diazocin-5(14H)-one]", "values": [
      {"measurement": "IC50", "setting": "read-out: IC50 value", "result": "< 100", "unit": "nM"}
    ]},
    {"smiles": "[2H]C([2H])([2H])N1C(=O)c2cccc(OC(F)F)c2[C@H]2C[C@@H]1c1nc3ccc(C#C[C@H]4C[C@H](NC)C4)cc3n12", "note": "[Example 254, (7R,14R)-1-(difluoromethoxy)-6-(methyl-d3)-11-(((1r,3R)-3-(methylamino)cyclobutyl)ethynyl)-6,7-dihydro-7,14-methanobenzo[f]benzo[4,5]imidazo[1,2-a][1,4]diazocin-5(14H)-one]", "values": [
      {"measurement": "IC50", "setting": "read-out: IC50 value", "result": "< 100", "unit": "nM"}
    ]},
    {"smiles": "[2H]C([2H])([2H])N1C(=O)c2cccc(OC(F)F)c2[C@H]2C[C@@H]1c1nc3ccc(C#Cc4ccc(NC(C)=O)nc4)cc3n12", "note": "[Example 255, N-(5-(((7R,14R)-1-(difluoromethoxy)-6-(methyl-d3)-5-oxo-5,6,7,14-tetrahydro-7,14-methanobenzo[f]benzo[4,5]imidazo[1,2-a][1,4]diazocin-11-yl)ethynyl)pyridin-2-yl)acetamide]", "values": [
      {"measurement": "IC50", "setting": "read-out: IC50 value", "result": "< 100", "unit": "nM"}
    ]},
    {"smiles": "[2H]C([2H])([2H])N1C(=O)c2cccc(OC(F)F)c2[C@H]2C[C@@H]1c1nc3ccc(C#CC4CN(C5COC5)C4(C)C)cc3n12", "note": "(stereo partly drawn) [Example 256, (7R,14R)-1-(difluoromethoxy)-11-((2,2-dimethyl-1-(oxetan-3-yl)azetidin-3-yl)ethynyl)-6-(methyl-d3)-6,7-dihydro-7,14-methanobenzo[f]benzo[4,5]imidazo[1,2-a][1,4]diazocin-5(14H)-one]", "values": [
      {"measurement": "IC50", "setting": "read-out: IC50 value", "result": "< 100", "unit": "nM"}
    ]},
    {"smiles": "[2H]C([2H])([2H])N1C(=O)c2cccc(OC(F)F)c2[C@H]2C[C@@H]1c1nc3ccc(C#Cc4cnc(NC(C)=O)nc4)cc3n12", "note": "[Example 259, N-(5-(((7R,14R)-1-(difluoromethoxy)-6-(methyl-d3)-5-oxo-5,6,7,14-tetrahydro-7,14-methanobenzo[f]benzo[4,5]imidazo[1,2-a][1,4]diazocin-11-yl)ethynyl)pyrimidin-2-yl)acetamide]", "values": [
      {"measurement": "IC50", "setting": "read-out: IC50 value", "result": "< 100", "unit": "nM"}
    ]}
  ]
}
